Data taken from patent publication US20040043377A1, “Evaluation method for predicting pharmacokinetics of PM using PM liver cells of drug metabolozing enzyme cytochrome P450 having a genetic polymorphism” (Pfizer Inc, priority 2002, published 2004).
Read-outs that look alike come from different tables or passages of the source.

Key:
[1] = molecular target: CYP2D6 (Homo sapiens, UniProt P10635); details: cited from earlier work
[2] = system: isolated EM liver cells (Lot 70); assay: Dextromethorphan metabolism in cryopreserved isolated EM liver cells (Lot 70); assay type: in vitro ADME, human
Method: (§1) A preliminary test for evaluation metabolic reactions was conducted by selecting dextromethorphan (DM, analgesic agent) as the substrate of CYP2D6. Metabolism of DM in the clinical setting is known to proceed by N-demethylation, O-demethylation followed by glucuronic acid conjugation. CYP3A4 catalyzes the N-demethylation reaction, while CYP2D6 catalyzes the O-demethylation reaction. In PM of […], N-demethylation is known to proceed as a compensatory metabolic pathway of O-demethylation. In the present embodiment, metabolic reactions were examined for dextromethorphan using isolated PM liver cells of CYP2D6, and a discussion was made as to whether or not the pharmacokinetics of PM can be predicted.
(§2) The cryopreserved isolated PM liver cells of PM of CYP2D6 that were used (Lot 64) and the cryopreserved isolated EM liver cells (Lot 70) were prepared at In Vitro Technologies (IVT), USA. Liver cells for which the activity of CYP3A4 was roughly equal to that of Lot 64 of the cryopreserved isolated PM liver cells were selected by referring to data provided by IVT for use as the cryopreserved isolated EM liver cells. The acquired cells consisted of 6×10^6 cells per vial for both lots.
Krebs Henseleit buffer (adjusted to pH 7.4 following addition of calcium chloride dihydrate (0.373 g/L), sodium bicarbonate (2.1 g/L) and HEPES (1.5 g/L)) was used for the incubation medium. The cryopreserved human isolated liver cells were inoculated into a 96-well plate and used for testing while suspended in culture liquid. Dextromethorphan (DM), which is the substrate of CYP2D6, was added to the wells at final concentrations of 0.08, 0.4, 2, 10 and 50 μM and allowed to react at 37° C. The reaction liquid was sampled after 1 and 2 hours, and the parent compound (DM) along with dextrorphan (DEX: metabolite mainly produced by CYP2D6) and 3-methoxymorphinan (3-MM: metabolite mainly produced by CYP3A4) were respectively assayed. […]

[3] = clinical dose level (about 20 mg/body); cited from earlier work
[4] = system: isolated PM liver cells of CYP2D6 (Lot 64); assay: Dextromethorphan metabolism in cryopreserved isolated PM liver cells of CYP2D6 (Lot 64); assay type: in vitro ADME, human
Method: as §1, §2
Krebs Henseleit buffer (adjusted to pH 7.4 following addition of calcium chloride dihydrate (0.373 g/L), sodium bicarbonate (2.1 g/L) and HEPES (1.5 g/L)) was used for the incubation medium. The cryopreserved human isolated liver cells were inoculated into a 96-well plate and used for testing while suspended in culture liquid. Dextromethorphan (DM), which is the substrate of CYP2D6, was added to the wells at final concentrations of 0.08, 0.4, 2, 10 and 50 μM and allowed to react at 37° C. The reaction liquid was sampled after 1 and 2 hours, and the parent compound (DM) along with dextrorphan (DEX: metabolite mainly produced by CYP2D6) and 3-methoxymorphinan (3-MM: metabolite mainly produced by CYP3A4) were respectively assayed. In addition, with respect to assay of the conjugate (glucuronide), DEX obtained by hydrolysis following the addition of β-glucuronidase/allylsulfatase to the sampled reaction liquid was assayed, and the difference with DEX prior to hydrolysis was taken to be the amount of the conjugate. LC/MS/MS were used for analyzing the unchanged form and metabolites in the culture liquid.
Furthermore, LC/MS/MS were carried out under the measurement conditions described below. HPLC: Waters 2790, MS: API365 Sciex, column: YMC J′ sphere ODS L80 2×35 mm, gradient: mobile phase A [CH3CN:10 mM CH3CO2NH4 aqueous solution=10:90], mobile phase B [CH3CN:10 mM CH3CO2NH4 aqueous solution=80:20], conditions [mobile phase flow rate 0.35 ml/minute, composition of mobile phase changed from A:B=100:0 to A:B=0:100 1 minute after sample injection, followed by allowing composition of A:B=0:100 to flow for 1 minute], MS/MS detection: DM=272.3/170.9, DEX=258.2/157.1, 3-MM=258.2/215.0, MDZ=326.1/291.1, 4-OH MDZ=342.1/324.1.

[5] = system: PM liver microsomes; assay: Metabolite formation in PM liver microsomes (Lot. No. HHM-0168); assay type: in vitro ADME, human
Method: Incubation reactions from the determination of the enzymatic kinetic parameters were carried out at a protein concentration of 0.2 mg/ml in 100 mM potassium phosphate, pH 7.4 containing 1.3 mM NADP^+, 0.93 mM NADH, 3.3 mM glucose-6-phosphate, 8 units/ml G-6-PDH, 3.3 mM MgCl2, and substrates. Reactions were initiated by the addition of NADP^+/NADH, and then terminated after 10 min incubation at 37° C. by the addition of ten-fold volume of acetonitrile containing an LC/MS/MS internal standard (Levallorphan at 100 ng/ml final conc.). The mixtures were centrifuged for 10 min, and supernatants were used for LC/MS/MS analyses to determine the production rates of metabolites.

CYP2D6, sequence (P10635 whole entry): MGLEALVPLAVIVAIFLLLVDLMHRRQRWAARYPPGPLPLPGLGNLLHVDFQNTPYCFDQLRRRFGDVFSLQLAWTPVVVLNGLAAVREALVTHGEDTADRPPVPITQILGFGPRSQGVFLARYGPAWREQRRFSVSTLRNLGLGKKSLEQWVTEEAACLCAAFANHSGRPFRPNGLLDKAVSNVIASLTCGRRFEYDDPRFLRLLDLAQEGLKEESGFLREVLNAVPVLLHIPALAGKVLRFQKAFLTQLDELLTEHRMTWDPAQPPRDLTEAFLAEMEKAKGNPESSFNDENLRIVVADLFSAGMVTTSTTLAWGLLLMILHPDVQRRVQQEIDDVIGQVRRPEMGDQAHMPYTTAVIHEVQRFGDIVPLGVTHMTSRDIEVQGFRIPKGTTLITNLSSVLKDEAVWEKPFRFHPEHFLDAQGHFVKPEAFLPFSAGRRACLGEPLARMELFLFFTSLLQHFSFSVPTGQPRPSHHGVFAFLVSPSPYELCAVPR

COc1ccc2c(c1)[C@]13CCCC[C@@H]1[C@H](C2)N(C)CC3 [DM, dextromethorphan]
Km [1]: ~2 µM | formation rate of 3-MM relative to DEX formation rate ([2]; EM liver cells): less than one-tenth | formation rate of metabolite DEX ([2]; EM liver cells, DM 0.08-50 μM): increased concentration-dependently | glucuronic acid conjugation reaction (DEX-glucuronide formation) ([2]; isolated EM liver cells lot 70): clearly determined to proceed | concentration of DM in the blood [3]: up to 1 μM | DEX formation [4]: not detected | 3-MM formation rate versus EM liver cells ([4]; CYP2D6 PM liver cells): greater than that in EM liver cells | differences in 3-MM/1'OH-MDZ formation rate between PM and EM liver cells (hepatocytes) ([4]; FIG. 5): large | formation rate of 3-MM relative to DEX formation rate ([4]; PM liver cells): comparable to the DEX formation rates | DEX formation ([4]; PM liver cells, DM 10 μM and 50 μM): formation of DEX was observed | DEX formation ([4]; PM, in the vicinity of concentration of DM in the blood (up to 1 μM)): only slight formation of DEX | glucuronic acid conjugation reaction (DEX-glucuronide formation) ([4]; isolated PM liver cells lot 64): clearly determined to proceed | differences in 3-MM/1'OH-MDZ formation rate between PM and EM liver microsomes ([5]; FIG. 6): not statically significance | compensatory metabolic pathway ([5]; PM microsomes): did not proceed
